Results on 15 molecules are retold here after patent publication US20220132846A1, “1-PYRIDYL-PYRAZOLYL AMIDE COMPOUNDS AND PREPARATION AND USES THEREOF” (HUNAN RESEARCH INSTITUTE OF CHEMICAL INDUSTRY CO., LTD., priority 2019, published 2022).

Assay [1] relates to Armyworm (Mythimna separata (Walker)). The assay is described as follows: Test against armyworm, Potter tower method. The format is in vivo. The note with it: for mortality at 12.5 µg/mL / mortality at 50 µg/mL / mortality at 500 µg/mL: Mythimna separata, third-instar larvae, after 72 hours, read-out: Activity (mortality) level against armyworm; for mortality at 12.5 µg/mL: 12.5 mg/L; for mortality at 50 µg/mL: 50 mg/L; for mortality at 500 µg/mL: 500 mg/L. Here is the method:
Potter tower method: the test compound was dissolved in an appropriate solvent such as N,N-dimethylformamide, and then diluted with 0.2% aqueous solution of Tween 80 to the desired concentration, Those without the test compounds were set as blank controls. The fresh and tender corn leaves were taken and cut into fragments of basically the same size, then put into a Petri dish (diameter 90 mm) padded with filter paper in advance. Ten third-instar larvae of test insects were transferred into the dish and then placed under the Potter spray tower for being sprayed, each concentration treatment was sprayed at the amount of 1 mL and replicated 3 times. The dish was covered and then placed in a chamber for culture and observed regularly, after 72 hours, the dead insects was investigated and recorded and the mean mortality was calculated. […]

Assay [2] deals with Aphis fabae. The assay is described as follows: Test against aphid, leaf dip method (Aphis fabae). The format is in vivo. To be noted: foliar; for mortality at 12.5 µg/mL: 12.5 mg/L; for mortality at 12.5 µg/mL / mortality at 50 µg/mL / mortality at 200 µg/mL / mortality at 500 µg/mL: after 24 hours, read-out: Activity (mortality) level against Aphis fabae; for mortality at 50 µg/mL: 50 mg/L; for mortality at 200 µg/mL: 200 mg/L; for mortality at 500 µg/mL: 500 mg/L; for LC50: further test, read-out: LC50 against Aphis fabae. As for the experimental part: For evaluating the activity of the compounds of this invention against Homoptera pests, Aphis fabae, wheat aphids, etc. were selected as the test insects, and the activity of the compounds of this invention against aphids was measured by leaf dip method indoors.
Leaf dip method (Aphis fabae): the test compound was dissolved in an appropriate solvent such as N,N-dimethylformamide, and then diluted with 0.2% aqueous solution of Tween 80 to the desired concentration, Those without the test compounds were set as blank controls, the treatments were replicated 3 times. Horsebean seedlings with no less than twenty 3-day-old Aphis fabae per plant was cut from the stem, 5 horsebean seedlings with the insects were dipped in the test solution for 5 seconds, then inserted into a sponge filled with water after sucked dry using filter paper, then covered with a glass tube and placed in a chamber for culture. After 24 hours, the number of living and dead insects were investigated and the results were averaged. […]

Take `CNC(=O)c1cc(Cl)cc(Br)c1N(C)C(=O)c1cc(Br)nn1-c1ncccc1Cl` [Compound 25, N-[2-bromo-4-chloro-6-[(methylamino)carbonyl]phenyl]-N-methyl-1-(3-chloro-2-pyridinyl)-3-bromo-1H-pyrazole-5-carboxamide]: in assay [1], the mortality at 12.5 µg/mL lay in the range of 90 to 100%, the mortality at 50 µg/mL is 90 to 100% and the mortality at 500 µg/mL lay within 90 to 100%. For the same molecule, in assay [2], the mortality at 12.5 µg/mL fell in the range of 90 to 100%, the mortality at 50 µg/mL is 90 to 100%, the mortality at 200 µg/mL is 90 to 100% and the mortality at 500 µg/mL was in the range of 90 to 100%.
For `CCNC(=O)c1cc(Cl)cc(Br)c1N(C)C(=O)c1cc(Br)nn1-c1ncccc1Cl` [Compound 26, N-[2-bromo-4-chloro-6-[(ethylamino)carbonyl]phenyl]-N-methyl-1-(3-chloro-2-pyridinyl)-3-bromo-1H-pyrazole-5-carboxamide], in assay [1], the mortality at 12.5 µg/mL was in the range of 90 to 100%, the mortality at 50 µg/mL fell in the range of 90 to 100% and the mortality at 500 µg/mL was in the range of 90 to 100%. Further, in assay [2], the mortality at 12.5 µg/mL fell in the range of 90 to 100%, the mortality at 50 µg/mL was in the range of 90 to 100%, the mortality at 200 µg/mL was in the range of 90 to 100% and the mortality at 500 µg/mL lay in the range of 90 to 100%.
With `CCCNC(=O)c1cc(Cl)cc(Br)c1N(C)C(=O)c1cc(Br)nn1-c1ncccc1Cl` [Compound 27, N-[2-bromo-4-chloro-6-[(propylamino)carbonyl]phenyl]-N-methyl-1-(3-chloro-2-pyridinyl)-3-bromo-1H-pyrazole-5-carboxamide], in assay [1], the mortality at 50 µg/mL is 90 to 100% and the mortality at 500 µg/mL fell in the range of 90 to 100%. For the same molecule, in assay [2], the mortality at 12.5 µg/mL is 90 to 100%, the mortality at 50 µg/mL is 90 to 100%, the mortality at 200 µg/mL was in the range of 90 to 100% and the mortality at 500 µg/mL is 90 to 100%.
For `CC(C)NC(=O)c1cc(Cl)cc(Br)c1N(C)C(=O)c1ccnn1-c1ncccc1Cl` [Compound 28, N-[2-bromo-4-chloro-6-[(isopropylamino)carbonyl]phenyl]-N-methyl-1-(3-chloro-2-pyridinyl)-1H-pyrazole-5-carboxamide], in assay [1], the mortality at 12.5 µg/mL is 90 to 100%, the mortality at 50 µg/mL was 90 to 100% and the mortality at 500 µg/mL was in the range of 90 to 100%. In addition, in assay [2], the mortality at 200 µg/mL lay within 90 to 100% and the mortality at 500 µg/mL lay within 90 to 100%.
In the case of `CN(C(=O)c1cc(Br)nn1-c1ncccc1Cl)c1c(Br)cc(Cl)cc1C(=O)NC1CC1` [Compound 29, N-[2-bromo-4-chloro-6-[(cyclopropylamino)carbonyl]phenyl]-N-methyl-1-(3-chloro-2-pyridinyl)-3-bromo-1H-pyrazole-5-carboxamide], in assay [1], the mortality at 12.5 µg/mL was 90 to 100%, the mortality at 50 µg/mL lay within 90 to 100% and the mortality at 500 µg/mL was 90 to 100%. In assay [2], the mortality at 200 µg/mL was in the range of 90 to 100% and the mortality at 500 µg/mL fell in the range of 90 to 100%.
Consider `CCCCNC(=O)c1cc(Cl)cc(Br)c1N(C)C(=O)c1ccnn1-c1ncccc1Cl` [Compound 30, N-[2-bromo-4-chloro-6-[(butylamino)carbonyl]phenyl]-N-methyl-1-(3-chloro-2-pyridinyl)-1H-pyrazole-5-carboxamide], for which the mortality at 500 µg/mL in assay [1] fell in the range of 90 to 100%. In assay [2], the mortality at 200 µg/mL was 90 to 100% and the mortality at 500 µg/mL was 90 to 100%.
Turning to `CN(C)C(=O)c1cc(Cl)cc(Br)c1N(C)C(=O)c1cc(Br)nn1-c1ncccc1Cl` [Compound 31, N-[2-bromo-4-chloro-6-[(dimethylamino)carbonyl]phenyl]-N-methyl-1-(3-chloro-2-pyridinyl)-3-bromo-1H-pyrazole-5-carboxamide], in assay [1], the mortality at 500 µg/mL fell in the range of 90 to 100%. Besides, in assay [2], the mortality at 12.5 µg/mL was in the range of 90 to 100%, the mortality at 50 µg/mL lay in the range of 90 to 100%, the mortality at 200 µg/mL lay in the range of 90 to 100% and the mortality at 500 µg/mL fell in the range of 90 to 100%. The LC50 in assay [2] is under 1 µg/mL.
Turning to `CCCN(C)C(=O)c1cc(Cl)cc(Br)c1N(C)C(=O)c1cc(Br)nn1-c1ncccc1Cl` [Compound 33, N-[2-bromo-4-chloro-6-[(methyl(propyl)amino)carbonyl]phenyl]-N-methyl-1-(3-chloro-2-pyridinyl)-3-bromo-1H-pyrazole-5-carboxamide], in assay [1], the mortality at 50 µg/mL was in the range of 90 to 100% and the mortality at 500 µg/mL is 90 to 100%. In assay [2], the mortality at 12.5 µg/mL lay within 90 to 100%, the mortality at 50 µg/mL was in the range of 90 to 100%, the mortality at 200 µg/mL was 90 to 100% and the mortality at 500 µg/mL was 90 to 100%.
On to `CC(C)N(C)C(=O)c1cc(Cl)cc(Br)c1N(C)C(=O)c1cc(Br)nn1-c1ncccc1Cl` [Compound 34, N-[2-bromo-4-chloro-6-[(methyl(isopropyl)amino)carbonyl]phenyl]-N-methyl-1-(3-chloro-2-pyridinyl)-3-bromo-1H-pyrazole-5-carboxamide], for which, in assay [1], the mortality at 50 µg/mL was in the range of 90 to 100% and the mortality at 500 µg/mL was in the range of 90 to 100%. In assay [2], the mortality at 12.5 µg/mL fell in the range of 90 to 100%, the mortality at 50 µg/mL fell in the range of 90 to 100%, the mortality at 200 µg/mL is 90 to 100% and the mortality at 500 µg/mL lay within 90 to 100%. For the same molecule, the LC50 in assay [2] was under 1 µg/mL.
For the molecule `CN(C(=O)c1cc(Br)nn1-c1ncccc1Cl)c1c(Br)cc(Cl)cc1C(=O)N(C)C1CC1` [Compound 35, N-[2-bromo-4-chloro-6-[(methyl(cyclopropyl)amino)carbonyl]phenyl]-N-methyl-1-(3-chloro-2-pyridinyl)-3-bromo-1H-pyrazole-5-carboxamide], in assay [1], the mortality at 50 µg/mL lay in the range of 90 to 100% and the mortality at 500 µg/mL was in the range of 90 to 100%. In assay [2], the mortality at 12.5 µg/mL is 90 to 100%, the mortality at 50 µg/mL was in the range of 90 to 100%, the mortality at 200 µg/mL was in the range of 90 to 100% and the mortality at 500 µg/mL lay in the range of 90 to 100%.
Regarding `CN(C(=O)c1cc(Br)nn1-c1ncccc1Cl)c1c(Br)cc(Cl)cc1C(=O)N(C)C(C)(C)C` [Compound 36, N-[2-bromo-4-chloro-6-[(methyl(tert-butyl)amino)carbonyl]phenyl]-N-methyl-1-(3-chloro-2-pyridinyl)-3-bromo-1H-pyrazole-5-carboxamide], in assay [1], the mortality at 50 µg/mL was in the range of 90 to 100% and the mortality at 500 µg/mL is 90 to 100%. Moreover, in assay [2], the mortality at 50 µg/mL was 90 to 100%, the mortality at 200 µg/mL fell in the range of 90 to 100% and the mortality at 500 µg/mL fell in the range of 90 to 100%.
As for `CCN(CC)C(=O)c1cc(Cl)cc(Br)c1N(C)C(=O)c1cc(Br)nn1-c1ncccc1Cl` [Compound 37, N-[2-bromo-4-chloro-6-[(diethylamino)carbonyl]phenyl]-N-methyl-1-(3-chloro-2-pyridinyl)-3-bromo-1H-pyrazole-5-carboxamide], in assay [1], the mortality at 12.5 µg/mL lay within 90 to 100%, the mortality at 50 µg/mL is 90 to 100% and the mortality at 500 µg/mL fell in the range of 90 to 100%. For the same molecule, in assay [2], the mortality at 12.5 µg/mL was in the range of 90 to 100%, the mortality at 50 µg/mL is 90 to 100%, the mortality at 200 µg/mL fell in the range of 90 to 100% and the mortality at 500 µg/mL was in the range of 90 to 100%.
As to `CCN(C(=O)c1cc(Br)nn1-c1ncccc1Cl)c1c(Br)cc(Cl)cc1C(=O)N(C)C` [Compound 38, N-[2-bromo-4-chloro-6-[(dimethylamino)carbonyl]phenyl]-N-ethyl-1-(3-chloro-2-pyridinyl)-3-bromo-1H-pyrazole-5-carboxamide], in assay [1], the mortality at 50 µg/mL was in the range of 90 to 100% and the mortality at 500 µg/mL was in the range of 90 to 100%. In assay [2], the mortality at 12.5 µg/mL was 90 to 100%, the mortality at 50 µg/mL was in the range of 90 to 100%, the mortality at 200 µg/mL lay in the range of 90 to 100% and the mortality at 500 µg/mL was in the range of 90 to 100%.
For the molecule `CCN(C)C(=O)c1cc(Cl)cc(Br)c1N(CC)C(=O)c1cc(Br)nn1-c1ncccc1Cl` [Compound 39, N-[2-bromo-4-chloro-6-[(methyl(ethyl)amino)carbonyl]phenyl]-N-ethyl-1-(3-chloro-2-pyridinyl)-3-bromo-1H-pyrazole-5-carboxamide], in assay [1], the mortality at 50 µg/mL fell in the range of 90 to 100% and the mortality at 500 µg/mL was in the range of 90 to 100%. Further, in assay [2], the mortality at 12.5 µg/mL fell in the range of 90 to 100%, the mortality at 50 µg/mL was 90 to 100%, the mortality at 200 µg/mL lay within 90 to 100% and the mortality at 500 µg/mL lay within 90 to 100%.
As to `CCN(CC)C(=O)c1cc(Cl)cc(Br)c1N(CC)C(=O)c1cc(Br)nn1-c1ncccc1Cl` [Compound 40, N-[2-bromo-4-chloro-6-[(diethylamino)carbonyl]phenyl]-N-ethyl-1-(3-chloro-2-pyridinyl)-3-bromo-1H-pyrazole-5-carboxamide], in assay [1], the mortality at 12.5 µg/mL was in the range of 90 to 100%, the mortality at 50 µg/mL was in the range of 90 to 100% and the mortality at 500 µg/mL is 90 to 100%. Also, the “Activity against armyworm, further screening (in words)” value in assay [1] (compared with chlorantraniliprole (D1)) was “excellent activity”. For the same molecule, in assay [2], the mortality at 12.5 µg/mL is 90 to 100%, the mortality at 50 µg/mL fell in the range of 90 to 100%, the mortality at 200 µg/mL fell in the range of 90 to 100% and the mortality at 500 µg/mL fell in the range of 90 to 100%.

The mortality is the share of the test organisms that died. The LC50 is the concentration lethal to half of the exposed cells or organisms.
